In article PMC9145846, “Polycyclic Phenol Derivatives from the Leaves of Spermacoce latifolia and Their Antibacterial and α-Glucosidase Inhibitory Activity” (Molecules, 2022):
Converted amounts (≈) assume the structure as drawn. Counter-ions that a name gives are not always drawn. Like-named read-outs stand apart in the source and are kept apart here.

Key:
[1] = tested on: Escherichia coli (CMCC44102); assay: Antibacterial assay (resazurin, 96-well doubling dilution), EC; format: cell-based
Protocol: (§1) The antibacterial assay was monitored in 96-well plates by using a method as described previously. Briefly, 100 μL indicator solution (resazurin in sterile water, 100 μg/mL) was first placed into each of the sterility control wells (11th column) on the 96-well plates, and the indicator solution (about 7.5 mL, 100 μg/mL) was mixed with test bacteria (5 mL, 10^6 cfu/mL, OD600 = 0.07) followed by transferring (100 μL, each) to growth control wells (12th column) and all test wells (1–10th column). Then, each of 100 μL of test compounds (1 mg/mL) in beef extract peptone medium, along with the positive control solutions (prepared by adding kanamycin sulfate and vancomycin instead of the samples) and the negative control solution (3% DMSO of beef extract peptone medium), were applied to the wells in the 1st column of the plates. Once all samples and controls were properly applied to the 1st column of wells on the plate, half of the homogenized content (100 μL solution) was then parallel-transferred from the 1st column wells to the 2nd column wells, and each subsequent well was treated similarly (doubling dilution) up to the 10th column, followed by discarding the last 100 μL aliquot. Finally, the plates were incubated at 37 °C for 5–6 h until the color of growth control change to pink. The lowest concentration for each test compound at which […] was recorded as the MIC value of the test compound. In the bioassay, Gram-(+) bacterial strains of Staphyloccocus aureus (CMCC26003), methicillin-resistant Staphylococcus aureus (MRSA), Bacillus cereus (CMCC63302), Bacillus subtilis (CMCC63501), and Gram-(−) bacterial strain of Escherichia coli (CMCC44102) were used for the test, and they were all purchased from the Guangdong Institute of Microbiology (Guangzhou, China).

[2] = tested on: methicillin-resistant Staphylococcus aureus (MRSA); assay: Antibacterial assay (resazurin, 96-well doubling dilution), MRSA; format: cell-based; settings: for MIC: MRSA, read-out: MIC, MRSA
Protocol: as §1

[3] = tested on: Bacillus subtilis (CMCC63501); assay: Antibacterial assay (resazurin, 96-well doubling dilution), BS; format: cell-based
Protocol: as §1

[4] = tested on: Bacillus cereus (CMCC63302); assay: Antibacterial assay (resazurin, 96-well doubling dilution), BC; format: cell-based
Protocol: as §1

[5] = tested on: Staphyloccocus aureus (CMCC26003); assay: Antibacterial assay (resazurin, 96-well doubling dilution), SA; format: cell-based; settings: for MIC: read-out: MIC, SA
Protocol: as §1

α-glucosidase = α-glucosidase (Saccharomyces cerevisiae, UniProt P53341); assay: α-Glucosidase inhibition assay (PNPG substrate); settings: read-out: α-Glucosidase inhibitory activity IC50; mean ± SD (n = 3); pH 6.8, PNPG, 37 °C, 15 min
Protocol: The a-glucosidase inhibitory activity of the ten isolated compounds was determined in 96-well microtiter plates following the method as described previously [15, 42]. In brief, α-glucosidase (20 μL, 0.5 U/mL) and various concentrations (500, 250, 125, 62.5, 31.2, 15.6, 7.8, 3.9 µg/mL) of tested compounds (120 μL) in 67 mM phosphate buffer (pH 6.8) were mixed in 96-well microtiter plates at room temperature for 10 min. Reactions were initiated by addition of 20 μL of 5.0 mM p-nitrophenyl-α-d-glucopyranoside (PNPG). The reaction mixture was incubated for 15 min at 37 °C in a final volume of 160 μL. Then, 0.2 M Na2CO3 (80 μL) was added to the incubation solution to stop the reaction and the absorbance was determined at 405 nm (for p-nitrophenol). The negative blank was set by adding phosphate buffer instead of test compounds via the same experimental procedure. […] The blank was set by adding phosphate buffer instead of the α-glucosidase using the same method. Inhibition rate (%) = [(ODnegative control − ODblank) − (ODtest − ODtest blank)]/(ODnegative blank − ODblank) × 100%. IC50 values were calculated and expressed as means ± standard deviations (SD) and SPSS 23.0 software was used for the analysis of variances.

[6] = CMCC44102, 37 °C, 5–6 h, resazurin colour change, read-out: MIC, EC
[7] = methicillin-resistant Staphylococcus aureus, 37 °C, 5–6 h, resazurin colour change
[8] = CMCC63501, 37 °C, 5–6 h, resazurin colour change, read-out: MIC, BS
[9] = CMCC63302, 37 °C, 5–6 h, resazurin colour change, read-out: MIC, BC
[10] = Staphyloccocus aureus, 37 °C, 5–6 h, resazurin colour change
[11] = 37 °C, 5–6 h, resazurin colour change

Sequence of α-glucosidase (P53341 whole entry): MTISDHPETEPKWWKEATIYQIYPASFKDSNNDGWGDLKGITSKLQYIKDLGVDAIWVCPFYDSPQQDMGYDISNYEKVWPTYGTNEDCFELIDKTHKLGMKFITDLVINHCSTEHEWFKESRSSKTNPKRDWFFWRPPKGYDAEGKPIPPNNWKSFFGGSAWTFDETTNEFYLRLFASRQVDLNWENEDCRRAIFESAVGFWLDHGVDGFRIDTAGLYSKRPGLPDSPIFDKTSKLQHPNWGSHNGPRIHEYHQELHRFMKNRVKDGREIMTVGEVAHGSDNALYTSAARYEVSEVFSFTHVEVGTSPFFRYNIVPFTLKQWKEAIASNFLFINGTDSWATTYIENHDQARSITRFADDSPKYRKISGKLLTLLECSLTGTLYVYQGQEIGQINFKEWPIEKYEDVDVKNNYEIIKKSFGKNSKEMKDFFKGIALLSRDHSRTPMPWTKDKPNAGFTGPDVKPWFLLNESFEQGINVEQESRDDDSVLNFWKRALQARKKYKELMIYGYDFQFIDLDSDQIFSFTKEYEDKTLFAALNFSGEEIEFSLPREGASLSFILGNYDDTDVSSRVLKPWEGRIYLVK

CC(O)(CO)c1cc2c(O)c3oc(=O)ccc3cc2o1 (stereo not drawn) [Compound 2, 2-(1′,2′-dihydroxypropan-2′-yl)-4-hydroxy-6H-furo [2,3-g][1] benzopyran-6-one]
MIC [1, 6]: > 100 µg/mL
MIC [2, 7]: > 100 µg/mL
MIC, MRSA [2, 7]: inactive
MIC [3, 8]: 62.5 µg/mL (≈ 226 µM)
MIC [4, 9]: 62.5 µg/mL (≈ 226 µM)
MIC [5, 10]: 62.5 µg/mL (≈ 226 µM)

COc1cc2ccc(=O)oc2c(O)c1O [Compound 7, 7,8-dihydroxy-6-methoxycoumarin]
MIC [1, 6]: > 100 µg/mL
MIC [2, 7]: > 100 µg/mL
MIC [3, 8]: > 100 µg/mL
MIC [4, 9]: > 100 µg/mL
MIC [5, 10]: > 100 µg/mL

COc1cc2oc(=O)ccc2cc1O [Compound 6, isoscopoletin]
MIC [1, 6]: > 100 µg/mL
MIC [2, 7]: > 100 µg/mL
MIC [3, 8]: > 100 µg/mL
MIC [4, 9]: > 100 µg/mL
MIC [5, 10]: > 100 µg/mL

NC[C@H]1O[C@H](O[C@H]2[C@H](O)[C@@H](O[C@H]3O[C@H](CO)[C@@H](O)[C@H](N)[C@H]3O)[C@H](N)C[C@@H]2N)[C@H](O)[C@@H](O)[C@@H]1O [K, Kanamycin sulfate, reference compound]
MIC [1, 6]: 1.95 µg/mL
MIC [2, 7]: > 100 µg/mL
MIC [3, 8]: 1.95 µg/mL
MIC [4, 9]: 3.9 µg/mL
MIC [5, 10]: 1.95 µg/mL

6,7,8,4′-tetramethoxyflavone [Compound 10]
MIC, EC [1, 11]: >100 µg/mL
MIC, MRSA [2, 7]: >100 µg/mL
MIC, BS [3, 11]: 15.6 µg/mL
IC50 (α-glucosidase): > 1000 µM
MIC, BC [4, 11]: 62.5 µg/mL
MIC, SA [5, 10]: 62.5 µg/mL

CC(=O)c1cc2c(O)c3oc(=O)ccc3cc2o1 [Compound 1, 2-acetyl-4-hydroxy-6H-furo [2,3-g]chromen-6-one]
MIC [1, 6]: > 100 µg/mL
MIC [2, 7]: > 100 µg/mL
MIC, MRSA [2, 7]: inactive
MIC [3, 8]: 31.2 µg/mL (≈ 128 µM)
MIC [4, 9]: 31.2 µg/mL (≈ 128 µM)
MIC [5, 10]: 62.5 µg/mL (≈ 256 µM)

O=c1ccc2cc(O)c(O)cc2o1 [Compound 5, esculetin]
MIC [1, 6]: > 100 µg/mL
MIC [2, 7]: > 100 µg/mL
MIC, MRSA [2, 7]: inactive
MIC [3, 8]: 7.81 µg/mL (≈ 43.8 µM)
MIC [4, 9]: 31.2 µg/mL (≈ 175 µM)
MIC [5, 10]: 31.2 µg/mL (≈ 175 µM)

COc1c(O)cc2oc3cc4c(c(O)c3c(=O)c2c1CC=C(C)C)C=CC(C)(C)O4 [Compound 4, 5,9-dihydroxy-8-methoxy-2,2-dimethyl-7-(3-methylbut-2-enyl)-2H,6H-pyrano [3,2-b]xanthen-6-one]
MIC [1, 6]: > 100 µg/mL
MIC [2, 7]: 1.95 µg/mL (≈ 4.77 µM)
MIC [3, 8]: 1.95 µg/mL (≈ 4.77 µM)
MIC [4, 9]: 1.95 µg/mL (≈ 4.77 µM)
MIC [5, 10]: 1.95 µg/mL (≈ 4.77 µM)

COc1c(O)cc2c(=O)oc3c(OC)c(O)ccc3c2c1O [Compound 8, 3,8,10-trihydroxy-4,9-dimethoxy-6H-benzo[c]chromen-6-one]
MIC [1, 6]: > 100 µg/mL
MIC [2, 7]: > 100 µg/mL
MIC, MRSA [2, 7]: inactive
MIC [3, 8]: 15.6 µg/mL (≈ 51.3 µM)
MIC [4, 9]: 31.2 µg/mL (≈ 103 µM)
MIC [5, 10]: 15.6 µg/mL (≈ 51.3 µM)

O=c1cc(-c2ccc(O)cc2)oc2cc(O)c(O)cc12 [Compound 9, 6,7,4′-trihydroxyflavone]
MIC [1, 6]: > 100 µg/mL
MIC [2, 7]: > 100 µg/mL
MIC [3, 8]: > 100 µg/mL
MIC [4, 9]: > 100 µg/mL
MIC [5, 10]: > 100 µg/mL

CN[C@H](CC(C)C)C(=O)N[C@H]1C(=O)N[C@@H](CC(N)=O)C(=O)N[C@H]2C(=O)N[C@H]3C(=O)N[C@H](C(=O)N[C@H](C(=O)O)c4cc(O)cc(O)c4-c4cc3ccc4O)[C@H](O)c3ccc(c(Cl)c3)Oc3cc2cc(c3O[C@@H]2O[C@H](CO)[C@@H](O)[C@H](O)[C@H]2O[C@H]2C[C@](C)(N)[C@H](O)[C@H](C)O2)Oc2ccc(cc2Cl)[C@H]1O [V, Vancomycin, reference compound]
MIC ([1]; CMCC44102, read-out: MIC, EC): > 100 µg/mL
MIC ([2]; Staphylococcus aureus): 3.9 µg/mL (≈ 2.69 µM)
MIC ([3]; CMCC63501, read-out: MIC, BS): 1.95 µg/mL (≈ 1.35 µM)
MIC ([4]; CMCC63302, read-out: MIC, BC): 1.95 µg/mL (≈ 1.35 µM)
MIC [5]: 1.95 µg/mL (≈ 1.35 µM)
